Assay results from ChEMBL document CHEMBL5154670, “Discovery of selective irreversible inhibitors of B-Lymphoid tyrosine kinase (BLK)” (Eur J Med Chem, 2022).
The source made the active and inactive calls. The rule behind the calls is not given here.

What was measured:
[1] = target: T1, Tyrosine-protein kinase BTK (Homo sapiens, UniProt Q06187); assay: Inhibition of wild type N-terminal GST tagged BTK (unknown origin) (2 to 659 residues) expressed in sf21 insect cell using TK as substrate incubated for 50 mins in presence of ATP by HTRF assay
T1 sequence (Q06187 whole entry, the tested form may be a part): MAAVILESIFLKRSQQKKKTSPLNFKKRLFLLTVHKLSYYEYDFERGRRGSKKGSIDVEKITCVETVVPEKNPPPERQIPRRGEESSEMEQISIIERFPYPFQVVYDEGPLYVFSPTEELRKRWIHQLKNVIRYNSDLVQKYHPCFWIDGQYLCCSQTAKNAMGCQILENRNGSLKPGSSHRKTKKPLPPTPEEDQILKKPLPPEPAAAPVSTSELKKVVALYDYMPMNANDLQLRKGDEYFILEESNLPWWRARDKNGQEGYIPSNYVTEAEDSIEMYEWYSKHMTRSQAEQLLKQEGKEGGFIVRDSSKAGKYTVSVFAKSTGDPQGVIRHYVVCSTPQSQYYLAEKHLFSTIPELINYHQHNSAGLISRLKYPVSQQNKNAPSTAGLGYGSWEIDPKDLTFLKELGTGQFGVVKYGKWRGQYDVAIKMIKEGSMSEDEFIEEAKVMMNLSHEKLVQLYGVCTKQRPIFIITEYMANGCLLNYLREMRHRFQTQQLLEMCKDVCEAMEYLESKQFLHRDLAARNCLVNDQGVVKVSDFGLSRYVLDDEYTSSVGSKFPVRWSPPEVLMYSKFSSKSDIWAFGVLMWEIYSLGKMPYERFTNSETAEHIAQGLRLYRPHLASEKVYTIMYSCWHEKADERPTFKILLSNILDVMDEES

SU-DHL-6 [2] = assay: Downregulation of CDK2 expression in human SU-DHL-6 cells at 0.1 to 0.3 uM incubated for 24 hrs by Western blot analysis; type: functional, cell-based; conditions: dose 0.1-0.3 µM
[3] = target: T1, Tyrosine-protein kinase BTK; assay: Inhibition of BTK in goat anti-human IgM antibody stimulated human Ramos cells assessed as BTK autophosphorylation at […] residue preincubated for 1 hr followed by antibody stimulation by Western blot analysis; type: cell-based
SU-DHL-6 [4] = assay: Downregulation of CDK2 expression in human SU-DHL-6 cells at 0.3 uM incubated for 24 hrs by Western blot analysis; type: functional, cell-based
DOHH-2 [5] = assay: Downregulation of CDK2 expression in human DOHH-2 cells at 0.1 to 0.3 uM incubated for 24 hrs by Western blot analysis; type: functional, cell-based; conditions: dose 0.1-0.3 µM
[6] = target: Receptor tyrosine-protein kinase erbB-4 (Homo sapiens) (UniProt Q15303); assay: Inhibition of HER4 (unknown origin) at 0.3 uM relative to control
HCT-116 = assay: Antiproliferative activity against human HCT-116 cells assessed as cell growth inhibition incubated for 72 hrs by celltiter-glo luminescent cell viability assay; type: functional
Jurkat = assay: Antiproliferative activity against human Jurkat cells assessed as cell growth inhibition incubated for 72 hrs by celltiter-glo luminescent cell viability assay; type: functional
A-375 = assay: Antiproliferative activity against human A-375 cells assessed as cell growth inhibition incubated for 72 hrs by celltiter-glo luminescent cell viability assay; type: functional
[7] = target: Receptor tyrosine-protein kinase erbB-2 (Homo sapiens) (UniProt P04626); assay: Inhibition of HER2 (unknown origin) at 0.3 uM relative to control
Sequence of Receptor tyrosine-protein kinase erbB-2 (Homo sapiens) (P04626 whole entry, the tested form may be a part): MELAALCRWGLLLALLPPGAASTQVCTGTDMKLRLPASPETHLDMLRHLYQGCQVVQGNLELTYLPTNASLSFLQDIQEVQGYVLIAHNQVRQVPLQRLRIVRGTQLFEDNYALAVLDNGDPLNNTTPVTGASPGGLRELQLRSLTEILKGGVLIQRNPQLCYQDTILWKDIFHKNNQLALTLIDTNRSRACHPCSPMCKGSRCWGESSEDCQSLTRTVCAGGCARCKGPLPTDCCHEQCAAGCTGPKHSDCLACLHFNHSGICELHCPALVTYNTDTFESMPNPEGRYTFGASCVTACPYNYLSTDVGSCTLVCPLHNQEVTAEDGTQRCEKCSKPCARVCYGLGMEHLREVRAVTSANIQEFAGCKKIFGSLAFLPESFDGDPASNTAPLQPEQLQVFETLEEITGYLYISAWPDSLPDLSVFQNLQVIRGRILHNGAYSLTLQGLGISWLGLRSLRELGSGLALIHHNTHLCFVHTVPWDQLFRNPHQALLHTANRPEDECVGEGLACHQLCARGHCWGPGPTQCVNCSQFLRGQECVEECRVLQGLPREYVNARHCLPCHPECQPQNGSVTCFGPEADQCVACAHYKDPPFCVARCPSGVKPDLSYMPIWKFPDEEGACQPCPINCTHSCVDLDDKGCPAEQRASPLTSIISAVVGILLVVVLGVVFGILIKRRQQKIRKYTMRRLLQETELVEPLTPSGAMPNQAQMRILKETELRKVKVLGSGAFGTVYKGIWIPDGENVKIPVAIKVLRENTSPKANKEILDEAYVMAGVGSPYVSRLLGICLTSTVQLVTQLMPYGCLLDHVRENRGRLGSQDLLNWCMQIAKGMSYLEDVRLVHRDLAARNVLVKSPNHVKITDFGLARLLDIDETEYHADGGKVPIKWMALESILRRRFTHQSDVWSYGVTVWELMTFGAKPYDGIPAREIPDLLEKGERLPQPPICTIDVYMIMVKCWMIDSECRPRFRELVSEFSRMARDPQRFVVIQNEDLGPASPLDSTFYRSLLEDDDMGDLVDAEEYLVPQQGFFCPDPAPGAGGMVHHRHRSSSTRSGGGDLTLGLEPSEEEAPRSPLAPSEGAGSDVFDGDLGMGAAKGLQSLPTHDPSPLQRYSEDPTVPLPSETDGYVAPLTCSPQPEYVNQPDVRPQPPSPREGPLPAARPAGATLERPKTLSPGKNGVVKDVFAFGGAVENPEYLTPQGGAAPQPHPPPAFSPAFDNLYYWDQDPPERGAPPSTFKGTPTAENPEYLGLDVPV

[8] = target: T2, Tyrosine-protein kinase Blk (Homo sapiens, UniProt P51451); assay: Inhibition of wild type N-terminal GST tagged BLK (unknown origin) (1 to 505 residues) expressed in sf21 insect cell using TK as substrate incubated for 50 mins in presence of ATP by HTRF assay
Target sequence in this assay (P51451 whole entry, the tested form may be a part): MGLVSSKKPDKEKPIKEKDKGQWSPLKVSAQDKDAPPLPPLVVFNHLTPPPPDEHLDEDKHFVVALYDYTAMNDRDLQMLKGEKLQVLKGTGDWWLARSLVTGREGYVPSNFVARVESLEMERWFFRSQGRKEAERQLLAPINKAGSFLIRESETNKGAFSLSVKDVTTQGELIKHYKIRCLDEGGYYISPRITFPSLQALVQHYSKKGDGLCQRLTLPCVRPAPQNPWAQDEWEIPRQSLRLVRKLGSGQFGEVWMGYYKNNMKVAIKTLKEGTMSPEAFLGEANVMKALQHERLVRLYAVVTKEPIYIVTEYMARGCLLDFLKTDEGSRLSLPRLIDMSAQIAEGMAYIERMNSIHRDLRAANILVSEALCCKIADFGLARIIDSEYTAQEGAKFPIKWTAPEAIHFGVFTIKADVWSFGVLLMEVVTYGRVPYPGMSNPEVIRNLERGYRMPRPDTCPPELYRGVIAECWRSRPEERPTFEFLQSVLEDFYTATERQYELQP

[9] = Antiproliferative activity against HEK293 cells assessed as cell growth inhibition incubated for 72 hrs by celltiter-glo luminescent cell viability assay; type: toxicity, cell-based; conditions: human
[10] = target: T1, Tyrosine-protein kinase BTK; assay: Inhibition of BTK in goat anti-human IgM antibody stimulated human Ramos cells assessed as PLCgamma2 phosphorylation preincubated for 1 hr followed by antibody stimulation by Western blot analysis; type: cell-based
[11] = target: T2, Tyrosine-protein kinase Blk; assay: Inhibition of BLK (unknown origin) at 0.3 uM relative to control
Target sequence in this assay (P51451 2-505 limits assumed): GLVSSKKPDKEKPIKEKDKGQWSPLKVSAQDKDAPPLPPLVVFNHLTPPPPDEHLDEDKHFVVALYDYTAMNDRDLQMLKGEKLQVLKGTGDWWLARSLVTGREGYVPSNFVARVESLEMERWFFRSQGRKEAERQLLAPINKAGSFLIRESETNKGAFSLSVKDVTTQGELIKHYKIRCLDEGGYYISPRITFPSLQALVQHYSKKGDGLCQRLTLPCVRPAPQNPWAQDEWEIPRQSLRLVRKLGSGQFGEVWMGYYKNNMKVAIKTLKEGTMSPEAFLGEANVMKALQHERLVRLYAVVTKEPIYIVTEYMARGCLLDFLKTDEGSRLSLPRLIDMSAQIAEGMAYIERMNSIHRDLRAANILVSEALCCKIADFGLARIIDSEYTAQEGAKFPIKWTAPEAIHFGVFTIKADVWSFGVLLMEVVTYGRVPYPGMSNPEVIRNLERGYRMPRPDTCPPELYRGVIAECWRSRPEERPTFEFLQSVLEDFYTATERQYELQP

DOHH-2 [12] = assay: Antiproliferative activity against human DOHH-2 cells assessed as cell growth inhibition incubated for 72 hrs by celltiter-glo luminescent cell viability assay; type: functional
A549 = assay: Antiproliferative activity against human A549 cells assessed as cell growth inhibition incubated for 72 hrs by celltiter-glo luminescent cell viability assay; type: functional
[13] = target: Tyrosine-protein kinase Tec (Homo sapiens) (UniProt P42680); assay: Inhibition of TEC (unknown origin) at 0.3 uM relative to control
Pfeiffer = assay: Antiproliferative activity against human Pfeiffer cells assessed as cell growth inhibition incubated for 72 hrs by celltiter-glo luminescent cell viability assay; type: functional
[14] = target: Epidermal growth factor receptor (Homo sapiens) (UniProt P00533); assay: Inhibition of EGFR (unknown origin) at 0.3 uM relative to control
[15] = Downregulation of CDK2 expression in human SU-DHL-6 cells at 0.3 uM preincubated for 1 hr followed by compound washout for 11 hrs and further incubated for 1 hr with compound followed by second washout for 11hrs by Western blot analysis; type: functional; conditions: time 2 hrs
[16] = target: T1, Tyrosine-protein kinase BTK; assay: Inhibition of BTK (unknown origin) at 0.3 uM relative to control
[17] = Antiproliferative activity against human HBL1 cells assessed as cell growth inhibition incubated for 72 hrs by celltiter-glo luminescent cell viability assay; type: functional
[18] = target: Cytoplasmic tyrosine-protein kinase BMX (Homo sapiens) (UniProt P51813); assay: Inhibition of BMX (unknown origin) at 0.3 uM relative to control
Sequence of Cytoplasmic tyrosine-protein kinase BMX (Homo sapiens) (P51813 whole entry): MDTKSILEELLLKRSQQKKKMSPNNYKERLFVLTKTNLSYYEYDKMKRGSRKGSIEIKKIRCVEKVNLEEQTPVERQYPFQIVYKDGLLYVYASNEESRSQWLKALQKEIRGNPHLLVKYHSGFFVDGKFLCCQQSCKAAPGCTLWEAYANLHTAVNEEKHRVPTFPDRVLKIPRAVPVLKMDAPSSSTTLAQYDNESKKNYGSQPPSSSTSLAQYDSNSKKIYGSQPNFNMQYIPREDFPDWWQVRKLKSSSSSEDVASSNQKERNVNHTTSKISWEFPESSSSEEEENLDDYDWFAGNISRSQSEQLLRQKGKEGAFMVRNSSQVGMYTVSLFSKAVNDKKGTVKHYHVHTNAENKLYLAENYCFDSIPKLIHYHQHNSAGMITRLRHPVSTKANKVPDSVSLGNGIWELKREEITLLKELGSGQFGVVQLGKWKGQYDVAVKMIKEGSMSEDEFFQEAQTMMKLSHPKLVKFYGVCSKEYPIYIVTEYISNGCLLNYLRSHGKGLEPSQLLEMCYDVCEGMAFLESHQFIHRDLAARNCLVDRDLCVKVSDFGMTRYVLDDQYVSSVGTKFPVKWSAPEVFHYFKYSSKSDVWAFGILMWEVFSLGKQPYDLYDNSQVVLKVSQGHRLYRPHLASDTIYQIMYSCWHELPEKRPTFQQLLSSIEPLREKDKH

MOLT-4 = assay: Antiproliferative activity against human MOLT-4 cells assessed as cell growth inhibition incubated for 72 hrs by celltiter-glo luminescent cell viability assay; type: functional
SU-DHL10 = assay: Antiproliferative activity against human SU-DHL-10 cells assessed as cell growth inhibition incubated for 72 hrs by celltiter-glo luminescent cell viability assay; type: functional
Homo sapiens = species on record: Homo sapiens; assay: Selectivity ratio, ratio of IC50 for inhibition of BTK (unknown origin) to IC50 for inhibition of BLK (unknown origin)
[19] = target: T2, Tyrosine-protein kinase Blk; assay: Irreversible inhibition of wild type N-terminal GST tagged BLK (unknown origin) (1 to 505 residues) expressed in sf21 insect cell at 3 uM incubated for 4 hrs and measured after 48 hrs dialysis
Target sequence in this assay (P51451 2-505 limits assumed): as the sequence (P51451 2-505 limits assumed) above

OCI-Ly7 = assay: Antiproliferative activity against human OCILY7 cells assessed as cell growth inhibition incubated for 72 hrs by celltiter-glo luminescent cell viability assay; type: functional
TMD8 = assay: Antiproliferative activity against human TMD8 cells assessed as cell growth inhibition incubated for 72 hrs by celltiter-glo luminescent cell viability assay; type: functional
[20] = target: T2, Tyrosine-protein kinase Blk; assay: (§1) Inhibition of (S)-3-(3-(5-acrylamido-6-(3-(5-(2-methyl-5-(3-(trifluoromethyl)benzamido)benzamido)pyrimidin-2-ylamino)phenylamino)-6-oxohexylamino)-3-oxopropyl)-5,5-difluoro-7,9-dimethyl-5H-dipyrrolo[1,2-c:1',2'-f][1,3,2]diazaborinin-4-ium-5-uide binding to BLK in human NAMALVA cells preincubated for 1 hr followed by compound washout for three times and treated with probe for 1 hr by competitive labeling assay; type: cell-based
Target sequence in this assay (P51451 whole entry, the tested form may be a part): as the sequence (P51451 whole entry, the tested form may be a part) above

[21] = target: Tyrosine-protein kinase TXK (Homo sapiens) (UniProt P42681); assay: Inhibition of TXK (unknown origin) at 0.3 uM relative to control
Sequence of Tyrosine-protein kinase TXK (Homo sapiens) (P42681 whole entry): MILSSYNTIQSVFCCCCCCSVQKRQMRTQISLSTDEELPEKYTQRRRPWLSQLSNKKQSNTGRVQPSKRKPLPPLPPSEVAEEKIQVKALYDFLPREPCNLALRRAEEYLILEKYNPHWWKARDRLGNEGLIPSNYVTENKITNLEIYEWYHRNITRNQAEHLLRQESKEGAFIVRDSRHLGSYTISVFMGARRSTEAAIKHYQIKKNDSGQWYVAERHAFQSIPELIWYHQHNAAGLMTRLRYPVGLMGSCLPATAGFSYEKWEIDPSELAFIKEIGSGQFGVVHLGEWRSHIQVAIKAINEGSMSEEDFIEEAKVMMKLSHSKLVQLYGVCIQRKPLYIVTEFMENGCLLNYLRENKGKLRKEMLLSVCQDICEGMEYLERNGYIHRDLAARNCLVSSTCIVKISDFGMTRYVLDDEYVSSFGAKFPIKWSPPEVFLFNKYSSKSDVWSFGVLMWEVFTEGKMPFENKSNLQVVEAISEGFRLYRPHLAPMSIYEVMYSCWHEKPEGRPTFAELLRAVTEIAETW

[22] = Antiproliferative activity against human PBMC cells assessed as cell growth inhibition incubated for 72 hrs by celltiter-glo luminescent cell viability assay; type: toxicity, cell-based
[23] = target: T2, Tyrosine-protein kinase Blk; assay: Inhibition of BLK in goat anti-human IgM antibody stimulated human Ramos cells assessed as BLK autophosphorylation at Tyr 389 residue at 0.3 uM preincubated for 1 hr followed by compound washout for 2 hrs and antibody stimulation by Western blot analysis; type: cell-based
Target sequence in this assay (P51451 2-505 limits assumed): as the sequence (P51451 2-505 limits assumed) above

MDA-MB-453 = assay: Antiproliferative activity against human MDA-MB-453 cells assessed as cell growth inhibition incubated for 72 hrs by celltiter-glo luminescent cell viability assay; type: functional
SU-DHL-6 [24] = assay: Antiproliferative activity against human SU-DHL-6 cells assessed as cell growth inhibition incubated for 72 hrs by celltiter-glo luminescent cell viability assay; type: functional
A-431 = assay: Antiproliferative activity against human A-431 cells assessed as cell growth inhibition incubated for 72 hrs by celltiter-glo luminescent cell viability assay; type: functional
[25] = target: Tyrosine-protein kinase ITK/TSK (Homo sapiens) (UniProt Q08881); assay: Inhibition of ITK (unknown origin) at 0.3 uM relative to control
[26] = target: T2, Tyrosine-protein kinase Blk; assay: as §1, with “to wild type” for “to”, “BLK over expressed” for “BLK”, “HEK293” for “human NAMALVA”; type: cell-based
Target sequence in this assay (P51451 2-505 limits assumed): as above

HEK293 = assay: as §1, with “BLK C319A mutant over expressed” for “BLK”, “HEK293” for “human NAMALVA”; type: cell-based; conditions: Homo sapiens
[27] = target: T1, Tyrosine-protein kinase BTK; assay: as §1, with “BTK” for “BLK”; type: cell-based
[28] = target: T1, Tyrosine-protein kinase BTK; assay: Time dependent inhibition of wild type N-terminal GST tagged BTK (unknown origin) (2 to 659 residues) expressed in sf21 insect cell using TK as substrate in presence of ATP by HTRF assay; conditions: time 50.0 min, TDE = time-dependent effect
[29] = target: Mitogen-activated protein kinase 14 (Homo sapiens) (UniProt Q16539); assay: Inhibition of p38alpha (unknown origin) relative to control; conditions: concentration not given here
[30] = target: Tyrosine-protein kinase Lyn (Homo sapiens) (UniProt P07948); assay: Inhibition of LYN (unknown origin) relative to control; conditions: concentration not given here
[31] = target: Tyrosine-protein kinase CSK (Homo sapiens) (UniProt P41240); assay: Inhibition of CSK (unknown origin) relative to control; conditions: concentration not given here
Sequence of Tyrosine-protein kinase CSK (Homo sapiens) (P41240 2-450 limits assumed): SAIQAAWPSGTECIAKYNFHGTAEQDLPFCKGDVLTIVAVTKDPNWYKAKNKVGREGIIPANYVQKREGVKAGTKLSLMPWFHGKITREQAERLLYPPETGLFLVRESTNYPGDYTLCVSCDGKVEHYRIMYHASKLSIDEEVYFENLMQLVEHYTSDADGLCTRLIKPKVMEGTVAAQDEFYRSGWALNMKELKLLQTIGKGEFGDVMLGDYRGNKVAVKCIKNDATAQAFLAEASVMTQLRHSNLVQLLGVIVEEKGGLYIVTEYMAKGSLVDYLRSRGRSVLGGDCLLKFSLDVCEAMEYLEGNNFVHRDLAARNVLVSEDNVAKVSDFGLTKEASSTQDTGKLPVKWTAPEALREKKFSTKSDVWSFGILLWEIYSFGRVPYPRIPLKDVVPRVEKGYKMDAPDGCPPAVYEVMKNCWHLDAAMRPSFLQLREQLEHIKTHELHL

Cc1ccc(NC(=O)c2ccc3cc(O)ccc3c2)cc1C(=O)Nc1cnc(Nc2cccc(N)c2)nc1
IC50 [1]: 0.212 µM

Cc1ccc(NC(=O)c2cccc(-c3cccnc3)c2)cc1C(=O)Nc1cnc(Nc2cccc(N)c2)nc1
IC50 [1]: 0.227 µM

Cc1ccc(NC(=O)c2cccc(-c3ccccc3)c2)cc1C(=O)Nc1cnc(Nc2cccc(N)c2)nc1
IC50 [1]: 0.66 µM

Cc1ccc(NC(=O)c2cccc(-c3ccc(F)nc3)c2)cc1C(=O)Nc1cnc(Nc2cccc(N)c2)nc1
IC50 [1]: 0.507 µM

Cc1ccc(NC(=O)c2cccc(-c3ccc(F)cc3)c2)cc1C(=O)Nc1cnc(Nc2cccc(N)c2)nc1
IC50 [1]: 0.694 µM

COc1ccc2cc(C(=O)Nc3ccc(C)c(C(=O)Nc4cnc(Nc5cccc(N)c5)nc4)c3)ccc2c1
IC50 [1]: 0.0638 µM

Cc1ccc(NC(=O)c2ccc3cnccc3c2)cc1C(=O)Nc1cnc(Nc2cccc(NC3CCN(C(=O)/C=C/CN(C)C)CC3)c2)nc1
Activity (SU-DHL-6 [2]): Active
EC50 [3]: > 1 µM
Activity (SU-DHL-6 [4]): Active
IC50 [1]: 0.202 µM
Activity (DOHH-2 [5]): Active
inhibition [6]: 94%
GI50 (HCT-116): 8.1 µM
GI50 (Jurkat): 10.9 µM
GI50 (A-375): > 30 µM
inhibition [7]: 19%
IC50 [8]: 0.0059 µM
GI50 at 72 h [9]: > 30 µM
EC50 [10]: > 1 µM
inhibition [11]: 101%
GI50 (DOHH-2 [12]): 0.016 µM
GI50 (A549): > 30 µM
inhibition [13]: 19%
GI50 (Pfeiffer): 2.18 µM
inhibition [14]: 97%
Activity [15]: 55%
inhibition [16]: 100%
GI50 [17]: 1.34 µM
inhibition [18]: 99%
GI50 (MOLT-4): 18.8 µM
GI50 (SU-DHL10): 0.56 µM
Ratio IC50 (Homo sapiens): 34.2
inhibition [19]: Active
GI50 (OCI-Ly7): 0.02 µM
GI50 (TMD8): 0.064 µM
IC50 [20]: 0.012 µM
inhibition [21]: 83%
GI50 at 72 h [22]: > 30 µM
inhibition [23]: Active
GI50 (MDA-MB-453): > 30 µM
GI50 (SU-DHL-6 [24]): 0.13 µM
GI50 (A-431): > 30 µM
inhibition [25]: 5%

C=CC(=O)Nc1cccc(Nc2ncc(NC(=O)c3cc(NC(=O)c4cccc(C(F)(F)F)c4)ccc3C)cn2)c1
inhibition [26]: Active
inhibition (HEK293): Active
IC50 [8]: 0.0188 µM
IC50 [20]: 0.015 µM

Cc1ccc(NC(=O)c2ccc3cc4ccccc4cc3c2)cc1C(=O)Nc1cnc(Nc2cccc(N)c2)nc1
IC50 [1]: 0.319 µM

Cc1ccc(NC(=O)c2ccc3cc(Br)ccc3c2)cc1C(=O)Nc1cnc(Nc2cccc(N)c2)nc1
IC50 [1]: 0.145 µM

Cc1ccc(NC(=O)c2ccc3cnccc3c2)cc1C(=O)Nc1cnc(Nc2cccc(N)c2)nc1
IC50 [1]: 0.407 µM

C=CC(=O)Nc1cccc(Nc2ncc(NC(=O)c3cc(NC(=O)c4ccc5cnccc5c4)ccc3C)cn2)c1
IC50 [1]: 0.056 µM
IC50 [27]: 0.11 µM
inhibition [28]: Tde

Cc1ccc(NC(=O)c2ccc3ncccc3c2)cc1C(=O)Nc1cnc(Nc2cccc(N)c2)nc1
IC50 [1]: 0.41 µM

Cc1ccc(NC(=O)OCc2ccccc2)cc1C(=O)Nc1cnc(Nc2cccc(N)c2)nc1
IC50 [1]: 0.445 µM

Cc1ccc(NC(=O)c2ccc3ccccc3c2)cc1C(=O)Nc1cnc(Nc2cccc(N)c2)nc1
IC50 [1]: 0.0788 µM

C=CC(=O)NCCC(=O)Nc1cccc(Nc2ncc(NC(=O)c3cc(NC(=O)c4ccc5cnccc5c4)ccc3C)cn2)c1
IC50 [1]: 0.388 µM

Cc1ccc(NC(=O)c2cccc(-c3ccco3)c2)cc1C(=O)Nc1cnc(Nc2cccc(N)c2)nc1
IC50 [1]: 0.36 µM

C=CC(=O)N1CCC(Nc2cccc(Nc3ncc(NC(=O)c4cc(NC(=O)c5ccc6cnccc6c5)ccc4C)cn3)c2)CC1
inhibition [29]: > 80%
inhibition [30]: > 80%
IC50 [1]: 0.058 µM
IC50 [8]: 0.0088 µM
inhibition [31]: > 80%
Ratio IC50 (Homo sapiens): 6.6
IC50 [20]: 0.0055 µM

Cc1ccc(NC(=O)c2ccc(-c3ccccc3)cc2)cc1C(=O)Nc1cnc(Nc2cccc(N)c2)nc1
IC50 [1]: 0.255 µM

Cc1ccc(NC(=O)CC23CC4CC(CC(C4)C2)C3)cc1C(=O)Nc1cnc(Nc2cccc(N)c2)nc1
IC50 [1]: 0.338 µM

Cc1ccc(NC(=O)c2cccc(C(F)(F)F)c2)cc1C(=O)Nc1cnc(Nc2cccc(N)c2)nc1
IC50 [1]: 0.0421 µM

Cc1ccc(NC(=O)c2ccc3cnccc3c2)cc1C(=O)Nc1cnc(Nc2cccc(NC3CCN(C(=O)CF)CC3)c2)nc1
IC50 [1]: 0.0634 µM
